Reference: PubChem BioAssay (NCI)
“And” between values parts separate entries of the source, which are not always exact repeats. Identical values can stand only once.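 Protocol summary: plate cells (96-well), add compound at 5 concentrations, incubate 48 h, interpolate endpoints linearly. The concentration for 50% growth inhibition is given as GI50. TGI is the concentration that stops growth completely.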 Where a SMILES comes first, the peptide text is derived from it. The star is where a group is joined. Palmitoyl = CCCCCCCCCCCCCCCC(=O)*

Experiments:
Assay in all cases: NCI tumour cell line growth inhibition, 48 h
[1] = system: CAKI-1 renal
[2] = system: EKVX NSCLC
[3] = system: SF-539 CNS
[4] = system: SK-MEL-28 melanoma
[5] = system: SW-620 colon
[6] = system: U251 CNS
[7] = system: UACC-257 melanoma
[8] = system: K-562 leukemia
[9] = system: M14 melanoma
[10] = system: MDA-MB-435

Compound | TGI [1] | TGI [2] | TGI [3] | TGI [4] | TGI [5] | TGI [6] | TGI [7] | TGI [8] | TGI [9] | TGI [10] [µM] | GI50 [1] | GI50 [2] | GI50 [8] | GI50 [9] [µM] | GI50 [10] [µM] | GI50 [3] | GI50 [4] [µM] | GI50 [5] | GI50 [7] | GI50 [6]
COc1cc2cc3c4c(cc(OC)c(OC)c4c2cc1OC)CCN3C(=O)OCCBr | > 100 µM | > 100 µM | > 100 µM | > 100 µM | > 100 µM | > 100 µM | > 100 µM |  |  |  |  |  |  |  |  |  |  |  |  | 
COC(=O)CCc1ccc2c(c1)CC1(C2)Cc2ccc(CCC(=O)OC)cc2C1 |  | > 100 µM | > 100 µM |  |  | > 100 µM | > 100 µM | > 100 µM | > 100 µM | > 100 |  |  |  |  |  |  |  |  |  | 
c1ccc(C/C(=N\Nc2nc3ccccc3o2)c2ccccn2)cc1 | 0.654 µM | < 0.0267 µM | 1.21 µM |  | 4.79 µM | 5.32 µM | 3.85 µM | 3.66 µM | 0.992 µM | 12.7 |  |  |  |  |  |  |  |  |  | 
CC(=O)Nc1ncc2c(n1)-c1ccccc1OC2 | > 100 µM | > 100 µM | > 100 µM |  | > 100 µM | > 100 µM | > 100 µM |  | > 100 µM | > 100 |  |  |  |  |  |  |  |  |  | 
CCCCCCCCCCCCCCCC(=O)NC(CCCCN)C(=O)NCC(=O)NC(Cc1ccccc1)C(=O)N1CCCC1C(=O)NC(CO)C(=O)NC(Cc1ccc(O)cc1)C(=O)NC(CCCCN)C(=O)NC(CC(C)C)C(=O)NC(CCCN=C(N)N)C(=O)N1CCCC1C(=O)NCC(N)=O (stereo not given) (Palmitoyl-KGFPSYKLRPG-NH2; configuration not given here) | 42.8 µM | 44 µM | 48.1 µM | 68.2 µM | 79.5 µM |  | 48 µM | 47.9 µM | 37.9 µM | 50.8 | 16.4 µM | 18.8 µM | 22.2 µM | 18.4 | 19 | 21.1 µM | 28.6 | 26 µM | 21.8 µM | 
COC(=O)c1ccc(OCc2ccc3nc(-c4ccccc4)c(Cl)nc3c2)cc1 | 69.9 µM | > 100 µM | > 100 µM | > 100 µM | > 100 µM | > 100 µM | > 100 µM |  | > 100 µM | > 100 |  |  |  |  |  |  |  |  |  | 
Cc1cccc(N2CCN(S(=O)(=O)c3ccc(Cl)cc3)C2=N)c1C | > 100 µM |  | > 100 µM | > 100 µM | > 100 µM | > 100 µM | > 100 µM | > 100 µM | > 100 µM | > 100 |  |  |  |  |  |  |  |  |  | 
C=C1C(=O)C[C@@]23CCC[C@@]12CC(O)C3 (stereo not given in full) |  | > 73.5 µM | 61.3 µM | 49.8 µM | 37.2 µM | > 100 µM | 52.3 µM | > 87 µM |  |  |  |  |  |  |  |  |  |  |  | 
Cc1cnc2[nH]c(-c3ccccc3)cc(=O)c2c1 | > 100 µM | > 82.2 µM | 0.0671 µM | > 100 µM | > 100 µM | > 22.1 µM |  |  | > 18 µM |  |  |  |  |  |  |  |  |  |  | 
COc1ccc(CC2C(=O)NC(C)C(=O)N(C)C3Cc4ccc(cc4)Oc4cc(ccc4O)CC(C(=O)NC(C)C(=O)NC(C)C(=O)N2C)N(C)C3=O)cc1 (stereo not given) |  | 0.144 µM and 0.0424 µM | 0.0219 µM and 0.0288 µM |  |  |  |  | 2.01 µM | 0.518 µM and 0.36 µM |  | 0.497 µM and 0.647 µM and 0.0727 µM | 0.00125 µM | < 0.0001 µM | 0.0107 |  | < 0.0001 µM |  | 0.000157 µM | < 0.0001 µM | < 0.0001 µM
NC(CO)c1ccccc1 (stereo not given) | > 100 µM | > 100 µM | > 100 µM | > 100 µM | > 100 µM | > 100 µM | > 100 µM |  | > 100 µM |  |  |  |  |  |  |  |  |  |  | 
C=CCOn1c(C=C)nc2c(C)cccc21 | 5.25 µM | 29.2 µM |  | 25.7 µM | 11.2 µM | 4.84 µM | 12.1 µM | 20.6 µM | 12.3 µM | 3.4 |  |  |  |  |  |  |  |  |  | 
COc1cc(C2S/C(=C/c3ccccc3)C(=O)N2c2ccc(Cl)cc2)cc(OC)c1OC (stereo not given) | > 100 µM | > 100 µM |  | > 100 µM | > 100 µM | > 94.1 µM | > 100 µM | > 100 µM | > 46 µM | 24.8 |  |  |  |  |  |  |  |  |  | 
CNC(=O)OCC1=C(COC(=O)NC)CN(c2ccccc2)C1 |  | > 100 µM | > 100 µM | > 100 µM | > 100 µM | > 100 µM | > 100 µM | > 100 µM | > 100 µM | > 100 |  |  |  |  |  |  |  |  |  | 
COc1cccc(N2N=C3c4ccccc4-n4c(nc5ccccc54)C3C2N)c1 (stereo not given) | > 100 µM | > 100 µM | > 100 µM | > 100 µM | > 100 µM | > 100 µM | > 100 µM |  | > 100 µM | > 100 |  |  |  |  |  |  |  |  |  | 
CC(=O)c1c(O)c(C)c(O)c2c1OC1=CC(=O)C(C(C)=O)C(=O)C12C (stereo not given) | 79.8 µM and 26.8 µM | 17 µM and 48.2 µM | 18.4 µM and 23.5 µM | 40.9 µM and 22 µM | 41.3 µM and 86 µM | 18.4 µM and 47.6 µM | 22.7 µM and 64.5 µM | 24.3 µM and 84.8 µM |  |  | 29.5 µM and 10.5 µM | 4.39 µM and 20.3 µM | 4.62 µM and 23 µM |  |  | 5.09 µM and 16.3 µM |  | 6.44 µM and 27.5 µM | 6.02 µM and 30.4 µM | 4.13 µM and 11.3 µM
CCN(CC)c1ccc(C(=C2C=CC(=[N+](CC)CC)C=C2)c2ccccc2)cc1 | 0.504 µM | 0.581 µM | 0.269 µM | 0.351 µM | 0.138 µM | 0.112 µM | 0.18 µM | 0.0968 µM | 0.641 µM |  |  |  |  |  |  |  |  |  |  | 
CCOc1ccc(NC(=S)/N=C/C(C(=O)Nc2ccccc2C)=C(\C)O)cc1 | > 100 µM | > 100 µM | > 100 µM |  | > 100 µM | > 100 µM | > 100 µM | > 100 µM | > 100 µM | > 100 |  |  |  |  |  |  |  |  |  | 
Cc1ccc(C2=Nn3c(nc4sc(-c5ccccc5)cc4c3=O)SC2)cc1 | > 100 µM | > 100 µM | > 100 µM | > 100 µM | > 100 µM | > 100 µM | > 100 µM | > 100 µM |  | > 100 |  |  |  |  |  |  |  |  |  | 
C/C(=N\O)c1ccc(Nc2c3ccccc3nc3occc23)cc1 |  | > 50 µM | 0.732 µM | > 18.5 µM | > 50 µM | > 24.6 µM | > 44.6 µM | > 50 µM | 3.5 µM | 0.0781 |  |  |  |  |  |  |  |  |  | 
C=C1C(=O)O[C@H]2C(=O)[C@H](C)CCC[C@@](C)(O)/C=C\C[C@@]3(C)O[C@@H]3C[C@@H]12 | 27 µM |  | 36.9 µM |  | 22.1 µM | 34.4 µM | 31 µM |  | 24 µM | 36.1 |  |  |  |  |  |  |  |  |  | 
